Here are results for one compound from US20060019964A1, “Compounds” (priority 2002, published 2006).

Broadly, the clearance is the volume of plasma or blood freed of the substance per unit of time. High values mean efficient removal, low ones inefficient removal. One may read the half-life as how long it takes for the measured level to halve.

Data set [1] is described as follows: Dog pharmacokinetics. Type of data set: in vivo, male Beagle dogs. On the procedure: Compounds were dosed to male Beagle dogs by single intravenous or oral administration at a nominal dose level of 1 mg/kg and 2 mg/kg respectively. The study was carried out according to a crossover design such that the same dog was used for both dosing events and the dosing events occurred 1 week apart. Compounds were formulated in 5% DMSO,45% Peg200,50% water. An intravenous profile was obtained by taking serial blood samples at 0.083, 0.25, 0.5, 0.75, 1, 2, 4, 6 & 12 hr post dose. An oral profile was obtained by taking serial blood samples at 0.25, 0.5, 0.75, 1, 2, 4, 6, 12 & 24 hr post dose. Blood samples were taken directly into heparinised tubes. Blood samples were prepared by protein precipitation and subjected to quantitative analysis by LC-MS/MS using compound-specific mass transitions. Drug concentration-time profiles were generated and non-compartmental PK analysis used to generate estimates of half-life, clearance, volume of distribution and oral bioavailability.

Data set [2] can be described thus: CNS penetration. Type of data set: in vivo, male CD Sprague Dawley rats. The settings on record: male, CD Sprague Dawley, brain; rat, 1 mg/kg intravenous, 5 minutes post-dose; described as low CNS penetration; read-out: CNS penetration (compound in brain tissue). On the procedure: Compounds were dosed intravenously at a nominal dose level of 1 mg/kg to male CD Sprague Dawley rats. Compounds were formulated in 5% DMSO/45% PEG200/50% water. Blood samples were taken under terminal anaesthesia with isoflurane at 5 minutes post-dose and the brains were also removed for assessment of brain penetration. Blood samples were taken directly into heparinised tubes. Blood samples were prepared for analysis using protein precipitation and brain samples were prepared using extraction of drug from brain by homogenisation and subsequent protein precipitation. The concentration of parent drug in blood and brain extracts was determined by quantitative LC-MS/MS analysis using compound-specific mass transitions.

Data set [3] concerns the target T1, histamine H3 receptor (Homo sapiens, UniProt Q9Y5N1).
T1 construct: expressed in transfected cells; host or cells: CHO K1 cells carrying pSwitch, transfected with pGeneH3, induced with mifepristone; clone 3H3; membrane preparation
In words: Histamine H3 functional antagonist assay ([35S]-GTPγS, CHO cell membranes). The following applies: functional antagonism vs histamine EC80, GTPγS; read-out: average pki (pKb) at H3 (converted). In kind it is biochemical. From the text:
2. H3 Receptor Cell Line Generation, Membrane Preparation and Functional GTPγS Assay Protocols
Generation of Histamine H3 Cell Line
The histamine H3 cDNA was isolated from its holding vector, pcDNA3.1 TOPO (InVitrogen), by restriction digestion of plasmid DNA with the enzymes BamH1 and Not-1 and ligated into the inducible expression vector pGene (InVitrogen) digested with the same enzymes. The GeneSwitch™ system (a system where in transgene expression is switched off in the absence of an inducer and switched on in the presence of an inducer) was performed as described in U.S. Pat. Nos. 5,364,791; 5,874,534; and 5,935,934. […]
10-14 days post selection 10 nM Mifepristone (InVitrogen), was added to the culture medium to induce the expression of the receptor. […] Receptor bound antibody was detected by incubation of the cells for 60 minutes on ice with a goat anti rabbit antibody, conjugated with Alexa 488 fluorescence marker (Molecular Probes). Following two further washes with Sorting Medium, cells were filtered through a 50 μm Filcon™ (BD Biosciences) and then analysed on a FACS Vantage SE Flow Cytometer fitted with an Automatic Cell Deposition Unit. […]
In general terms: Binding of GTPγS marks nucleotide exchange on a G protein.

The target of data set [4] is T2, human H1 receptor (Homo sapiens, UniProt P35367).
T2 construct: expressed in transfected cells
T2 sequence (P35367 whole entry): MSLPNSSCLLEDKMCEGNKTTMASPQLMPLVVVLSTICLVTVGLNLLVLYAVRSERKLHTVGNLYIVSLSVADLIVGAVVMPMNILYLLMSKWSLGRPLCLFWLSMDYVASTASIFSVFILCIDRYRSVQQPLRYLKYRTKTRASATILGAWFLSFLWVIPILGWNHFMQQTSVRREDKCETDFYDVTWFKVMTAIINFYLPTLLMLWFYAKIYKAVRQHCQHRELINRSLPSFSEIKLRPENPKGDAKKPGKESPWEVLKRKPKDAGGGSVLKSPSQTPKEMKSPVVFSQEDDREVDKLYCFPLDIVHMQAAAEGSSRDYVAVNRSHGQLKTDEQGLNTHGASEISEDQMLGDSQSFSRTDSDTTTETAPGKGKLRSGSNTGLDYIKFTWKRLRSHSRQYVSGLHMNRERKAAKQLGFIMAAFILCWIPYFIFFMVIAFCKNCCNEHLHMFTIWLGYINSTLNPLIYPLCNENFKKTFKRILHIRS
In words: Histamine H1 functional antagonist assay (FLIPR). Type of data set: cell-based. The settings on record: functional antagonism vs histamine EC80, FLIPR, CHO cells; read-out: average pki (pKb) at H1 (converted). On the procedure: H1 Receptor Cell Line Generation and FLIPR Assay Protocol
1. Generation of Histamine H1 Cell Line
The human H1 receptor was cloned using known procedures described in the literature [Biochem. Biophys. Res. Commun. 1994, 201(2), 894]. Chinese hamster ovary cells stably expressing the human H1 receptor were generated according to known procedures described in the literature [Br. J. Pharmacol. 1996, 117(6), 1071].
Histamine H1 Functional Antagonist Assay […]
10 μl of test compound, diluted to the required concentration in Tyrodes buffer+probenecid (or 10 μl Tyrodes buffer+probenecid as a control) was added to each well and the plate incubated for 30 min at 37° C., 5% CO2. The plates were then placed into a FLIPR™ (Molecular Devioes, UK) to monitor cell fluorescence (λex=488 nm, λEM=540 nm) in the manner described in Sullivan et al. (In: Lambert DG (ed.), Calcium Signaling Protocols, New Jersey: Humana Press, 1999, 125-136) before and after the addition of 10 μl histamine at a concentration that results in the final assay concentration of histamine being EC80.
Functional antagonism is indicated by a suppression of histamine induced increase in fluorescence, as measured by the FLIPR™ system (Molecular Devices). By means of concentration effect curves, functional affinities are determined using standard pharmacological mathematical analysis.

Data set [5] can be described thus: Rat pharmacokinetics. Type of data set: in vivo, male CD Sprague Dawley rats. On the procedure: Compounds were dosed to male CD Sprague Dawley rats by single intravenous or oral administration at a nominal dose level of 1 mg/kg and 3 mg/kg respectively. Compounds were formulated in 5% DMSO,45% PEG200,50% water. An intravenous profile was obtained by taking serial or terminal blood samples at 0.083, 0.25, 0.5, 1, 2, 4, and 7 hours post dose. An oral profile was obtained by taking serial or terminal blood samples at 0.25, 0.5, 1, 2, 4, 7 and 12 hours post dose. Blood samples were taken directly into heparinised tubes. Blood samples were prepared by protein precipitation and subjected to quantitative analysis by LC-MS/MS using compound-specific mass transitions. Drug concentration-time profiles were generated and non-compartmental PK analysis used to generate estimates of half-life, clearance, volume of distribution and oral bioavailability.

T1 sequence (Q9Y5N1 whole entry, species assumed): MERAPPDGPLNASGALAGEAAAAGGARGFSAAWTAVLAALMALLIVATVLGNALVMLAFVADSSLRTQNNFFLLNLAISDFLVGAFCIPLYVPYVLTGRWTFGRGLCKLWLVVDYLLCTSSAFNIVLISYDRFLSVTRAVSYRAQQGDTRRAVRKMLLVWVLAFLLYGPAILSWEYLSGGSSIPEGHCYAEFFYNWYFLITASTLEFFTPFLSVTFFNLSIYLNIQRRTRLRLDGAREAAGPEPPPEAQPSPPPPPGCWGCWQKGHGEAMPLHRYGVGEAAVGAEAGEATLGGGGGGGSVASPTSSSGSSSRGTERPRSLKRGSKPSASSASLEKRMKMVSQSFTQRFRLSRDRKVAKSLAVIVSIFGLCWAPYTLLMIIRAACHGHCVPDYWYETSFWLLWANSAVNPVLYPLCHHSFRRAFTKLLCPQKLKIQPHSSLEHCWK

For `CS(=O)(=O)c1ccc(C(=O)N2CCN(c3ccc(OC4CCN(C5CCC5)CC4)cc3)CC2)cc1` [compound of formula (I), 1-{4-[(1-Cyclobutyl-4-piperidinyl)oxy]phenyl}4-{[4-(methylsulfonyl)phenyl]carbonyl}piperazine], the clearance was roughly 10 mL/min/kg in data set [1] (male, Beagle, whole blood, 1 mg/kg intravenous) and roughly 29 mL/min/kg in data set [5] (male, CD Sprague Dawley, whole blood, 1 mg/kg intravenous). Further, the half-life was roughly 5 h in data set [1] (male, Beagle, whole blood, IV route, 1 mg/kg) and roughly 2 h in data set [5] (male, CD Sprague Dawley, whole blood, IV route, 1 mg/kg). The “oral bioavailability in the dog” value in data set [1] (oral 2 mg/kg vs intravenous 1 mg/kg) is “about 99 % F”. For the same compound, the concentration at 5 min in data set [2] is less than 100 ng/g. Also, the values for the Ki in data set [3] and in data set [4] were roughly 0.251 nM and roughly 2510 nM, respectively. Moreover, the “oral bioavailability in the rat” value in data set [5] (oral 3 mg/kg vs intravenous 1 mg/kg) is “greater than 50 %F”.
